Experimental data as given in patent publication US12116356B2, “N-heterocyclic five-membered ring-containing capsid protein assembly inhibitor, pharmaceutical composition thereof, and use thereof” (CHIA TAI TIANQING PHARMACEUTICAL GROUP CO., LTD., priority 2018, dated 2024).

Legend:
[1] = biological target: CYP 2C9 (Homo sapiens (Human), UniProt P11712); assay: CYP450 enzyme inhibition study (liver microsomes, subtype IC50); assay type: in vitro ADME; conditions: 30 minutes, read-out: Subtypes IC50 2C9
Method: (§1) 500 μL of a final incubation system contains 50 μL of liver microsomes (protein concentration: 0.2 mg/mL), 1 μL of mixed CYP450 specific substrates (CYP1A2, CYP 2B6, CYP 2C9, CYP2C19, CYP 2D6, and CYP 3A4), 398 μL PBS buffer (PH7.4), 1 μL specific positive inhibitor (positive control group) or the test compound (formulated with acetonitrile), and 50 μL NADPH+MgCl2. Duplicate incubation systems of 0.5 mL each were formulated for each CYP450 subtype. A total volume of 450 μL of a uniformly mixed solution of the substrate and the enzyme was formulated in each tube, and the solution and NADPH were pre-incubated at 37° C. for 5 minutes, respectively. Then 50 μL of the mixed solution of NADPH+MgCl2 was added for reaction. 50 μL of the reaction solution was taken out at 30 minutes, and the reaction was terminated with 300 μL of ice acetonitrile containing an internal standard. In addition, two control groups of 500 μL each without NADPH were prepared in parallel as a negative control group.
(§2) Sample pre-treatment: To 50 μL of the incubated sample was added 300 μL of ice acetonitrile containing an internal standard, and then precipitated. After vortexing for 5 minutes, the sample was centrifugated (12000 rpm, 4° C.) for 10 minutes. 75 μL of the supernatant was pipetted, and 75 μL of ultrapure water was added thereto for dilution and mixed uniformly. 1 μL of the resulting solution was injected for analysis.

[2] = biological target: CYP 3A4 (Homo sapiens (Human), UniProt P08684); assay: as above; assay type: in vitro ADME; conditions: 30 minutes, read-out: Subtypes IC50 3A4
Method: as §1, §2

[3] = biological target: CYP1A2 (Homo sapiens (Human), UniProt P05177); assay: as above; assay type: in vitro ADME
Method: as §1, §2

[4] = biological target: CYP 2D6 (Homo sapiens (Human), UniProt P10635); assay: as above; assay type: in vitro ADME; conditions: 30 minutes, read-out: Subtypes IC50 2D6
Method: as §1, §2

[5] = Plasma protein binding assay (equilibrium dialysis), dog plasma; assay type: in vitro ADME
Method: (§3) Formulation of plasma sample: 495 μL of blank plasmas of the corresponding species (mouse, rat, dog, monkey, and human) were drawn respectively, and thereto was added 5 μL of the corresponding test compound solution or positive control to give plasma sample solutions having a plasma drug concentration of the compound of 1 μM, and 10 μM, respectively (formulated with acetonitrile).
(§4) The pre-treated dialysis membrane was placed in a high-throughput equilibrium dialysis device, and 100 μL of the plasma sample solution and PBS buffer solution were drawn and added respectively to both sides of the dialysis membrane (sample side and buffer side) (n=3). After the equilibration device was sealed with a film, it was incubated at 37° C. overnight (100 rpm). After dialysis equilibrium was reached, 50 μL samples were drawn from the sample side and the buffer side, respectively, and the reaction was terminated by adding ice acetonitrile containing an internal standard.
as §2, with “plasma-side” for “incubated”, “450” for “300”, “analysis. To 50 μL of the PBS-side sample was added 250 μL of ice acetonitrile with an internal standard, and precipitated. After vortexing for 5 min, the sample was centrifugated (12000 rpm, 4° C.) for 10 min. 75 μL of the supernatant was pipetted, and 75 μL of ultrapure water was added thereto for dilution and mixed uniformly. 2 μL of the resulting solution was injected for analysis.” for “analysis.”

[6] = Plasma protein binding assay (equilibrium dialysis), human plasma; assay type: in vitro ADME
Method: as §3, §4
as §2, with “plasma-side” for “incubated”, “450” for “300”, “analysis. To 50 μL of the PBS-side sample was added 250 μL of ice acetonitrile with an internal standard, and precipitated. After vortexing for 5 min, the sample was centrifugated (12000 rpm, 4° C.) for 10 min. 75 μL of the supernatant was pipetted, and 75 μL of ultrapure water was added thereto for dilution and mixed uniformly. 2 μL of the resulting solution was injected for analysis.” for “analysis.”

[7] = test system: HBV DNA in HepG2.2.15 cells; assay: In vitro cell HBV DNA inhibitory activity (anti-HBV activity) in HepG2.2.15 cells; assay type: cell-based; conditions: Hepatitis B virus, 144 h; anti-HBV activity in HepG2.2.15 cells, 6 days treatment, intracellular capsid HBV DNA by qPCR; read-out: EC50
Method: A bottle of HepG2.2.15 or HepAD38 cells in good exponential growth state was taken, washed once by adding 5 mL PBS, and then thereto was added 3 mL trypsin. After digesting at room temperature for 5 min, 2 mL trypsin was discarded, and then the sample was placed in a cell culture incubator and digested for 10 min. The cells were taken out from time to time and observed under a microscope (whether the cells were individually round and there was no adhesion between the cells). 10 mL complete medium was added to terminate the digestion. After pipetting into a single cell suspension, 10 μL of the cell suspension was taken out for cell counting with a cell counter, and then diluted with a complete medium and adjusted to a cell density of 1*10^5 cells/mL. Then the cell suspension was seeded at 1 mL/well in a 24-well plate with a multi-channel pipette (the 24-well plate was coated with 50 μg/mL Collagen I solution in advance), and cultured in a constant temperature CO2 incubator for 48 h.
Different compounds dissolved in DMSO were subjected to two-fold gradient dilution (10 concentrations in total) with complete medium. The compound was added, and fresh medium containing the compound was used to replace the spent medium every 72 hours. The cells were treated with the compound for 6 days. After the supernatant was siphoned off, 300 μL lysate (10 mM Tris-HCl, 1 mM EDTA, and 1% NP-40) was added to each well. After lysing at room temperature for 10 min, DNA was extracted, and HBV DNA in the intracellular viral capsid was measured by real-time fluorescence quantitative PCR. The inhibition rate was calculated based on the Ct value, and the EC50 value was calculated by the four-parameter method.

[8] = Stability of mouse liver microsomes in vitro; assay type: in vitro ADME
Method: 300 μL of a final incubation system contains 30 μL of liver microsomes (protein concentration: 0.15 mg/mL), 30 μL NADPH+MgCl2, 3 μL substrate (formulated with acetonitrile), and 237 μL PBS buffer. Duplicate incubation systems of 0.3 mL each were formulated for each species. A total volume of 270 μL of a uniformly mixed solution of the substrate and the enzyme was formulated in each tube, the solution and NADPH were pre-incubated at 37° C. for 5 minutes, respectively. Then 30 μL of the mixed solution of NADPH+MgCl2 was added for reaction. 50 μL of the reaction solution was taken out at 0, 10, 30, and 60 mins, and the reaction was terminated with 300 μL of ice acetonitrile containing an internal standard.
Sample pre-treatment: To 50 μL of the incubated sample was added 300 μL of ice acetonitrile containing diazepam as an internal standard and then precipitated. After vortexing for 5 minutes, the sample was centrifugated (12000 rpm, 4° C.) for 10 minutes. 75 μL of the supernatant was pipetted into a 96-well plate, and then diluted with 75 μL ultrapure water and mixed uniformly. 0.5 μL of the resulting solution was injected and analyzed by LC-MS/MS.

CYP 3A4, sequence (P08684 whole entry): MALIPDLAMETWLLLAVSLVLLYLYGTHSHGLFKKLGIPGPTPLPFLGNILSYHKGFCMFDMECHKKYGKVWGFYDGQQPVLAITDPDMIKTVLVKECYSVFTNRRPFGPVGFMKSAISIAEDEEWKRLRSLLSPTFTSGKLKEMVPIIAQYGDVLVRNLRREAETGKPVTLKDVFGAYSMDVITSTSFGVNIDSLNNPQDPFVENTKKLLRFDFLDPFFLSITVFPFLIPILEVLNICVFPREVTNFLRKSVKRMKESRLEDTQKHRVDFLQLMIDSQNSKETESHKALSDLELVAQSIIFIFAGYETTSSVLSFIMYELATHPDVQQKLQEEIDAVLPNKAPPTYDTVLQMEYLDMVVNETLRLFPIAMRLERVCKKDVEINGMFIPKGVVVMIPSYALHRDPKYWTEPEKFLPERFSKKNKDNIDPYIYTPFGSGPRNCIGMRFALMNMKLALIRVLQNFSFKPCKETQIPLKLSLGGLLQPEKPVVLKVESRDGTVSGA
CYP1A2, sequence (P05177 whole entry): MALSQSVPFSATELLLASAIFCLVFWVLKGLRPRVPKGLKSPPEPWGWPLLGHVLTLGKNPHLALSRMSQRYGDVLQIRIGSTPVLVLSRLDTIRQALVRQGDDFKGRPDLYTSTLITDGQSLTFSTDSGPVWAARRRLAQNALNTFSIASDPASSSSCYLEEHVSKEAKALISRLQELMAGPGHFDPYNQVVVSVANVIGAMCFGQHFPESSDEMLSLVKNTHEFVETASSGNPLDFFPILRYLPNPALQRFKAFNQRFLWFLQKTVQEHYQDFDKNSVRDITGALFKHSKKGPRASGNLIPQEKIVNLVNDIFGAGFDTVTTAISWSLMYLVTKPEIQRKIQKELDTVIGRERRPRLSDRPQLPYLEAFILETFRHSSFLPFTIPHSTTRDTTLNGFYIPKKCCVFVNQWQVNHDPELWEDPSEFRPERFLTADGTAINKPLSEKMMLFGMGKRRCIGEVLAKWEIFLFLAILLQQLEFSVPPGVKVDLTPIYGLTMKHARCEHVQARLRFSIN
CYP 2C9, sequence (P11712 whole entry): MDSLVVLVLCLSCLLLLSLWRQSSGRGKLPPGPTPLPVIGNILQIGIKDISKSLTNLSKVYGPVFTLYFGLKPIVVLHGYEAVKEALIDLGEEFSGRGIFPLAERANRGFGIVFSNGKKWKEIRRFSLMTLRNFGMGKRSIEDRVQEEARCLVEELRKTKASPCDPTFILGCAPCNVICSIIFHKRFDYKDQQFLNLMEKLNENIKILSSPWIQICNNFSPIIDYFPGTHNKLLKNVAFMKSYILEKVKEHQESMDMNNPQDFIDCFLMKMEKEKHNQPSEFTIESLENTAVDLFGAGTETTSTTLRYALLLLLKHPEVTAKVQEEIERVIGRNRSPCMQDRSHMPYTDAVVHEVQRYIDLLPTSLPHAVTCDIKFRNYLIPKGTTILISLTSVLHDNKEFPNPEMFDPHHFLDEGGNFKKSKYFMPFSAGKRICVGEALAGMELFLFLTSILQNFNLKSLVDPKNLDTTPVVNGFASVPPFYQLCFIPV
CYP 2D6, sequence (P10635 whole entry): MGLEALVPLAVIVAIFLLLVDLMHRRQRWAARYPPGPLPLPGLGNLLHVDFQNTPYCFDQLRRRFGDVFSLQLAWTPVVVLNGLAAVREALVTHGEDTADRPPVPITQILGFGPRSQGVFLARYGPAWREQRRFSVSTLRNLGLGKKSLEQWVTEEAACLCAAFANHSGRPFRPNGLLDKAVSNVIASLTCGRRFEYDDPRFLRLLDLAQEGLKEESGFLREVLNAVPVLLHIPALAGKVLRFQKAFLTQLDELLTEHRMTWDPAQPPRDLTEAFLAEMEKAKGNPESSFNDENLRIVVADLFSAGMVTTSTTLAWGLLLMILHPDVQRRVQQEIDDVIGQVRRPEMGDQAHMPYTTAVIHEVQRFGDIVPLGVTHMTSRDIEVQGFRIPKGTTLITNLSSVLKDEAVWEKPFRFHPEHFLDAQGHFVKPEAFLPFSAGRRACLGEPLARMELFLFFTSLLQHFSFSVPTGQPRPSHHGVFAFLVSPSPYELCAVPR

SMILES	IC50 [1] [µM]	IC50 [2] [µM]	IC50 [3] [µM]	IC50 [4] [µM]	Binding rate ([5]; 1 μM) [%]	Binding rate ([5]; 10 μM) [%]	Binding rate ([6]; 1 μM) [%]	Binding rate ([6]; 10 μM) [%]	EC50 [7] [µM]	Remaining (%) at 60 min [8] [%]
Cc1c(C(=O)Nc2ccc(F)c(C#N)c2)c(C)n(C)c1C(=O)C(=O)N[C@@H](C)C(F)(F)F [Example 12]	79.7	> 200	46.4	224	85.9	85.9	94.0	93.7	< 0.01	67.1
Cc1c(C(=O)Nc2ccc(F)c(C#N)c2)c(C)n(C)c1C(=O)C(=O)NC1(C(F)(F)F)COC1 [Example 25, N-(3-cyano-4-fluorophenyl)-1,2,4-trimethyl-5-(2-oxo-2-((3-(trifluoromethyl)oxetan-3-yl)amino)acetyl)-1H-pyrrole-3-carboxamide]	16.6	76	229	120	87.0	86.8	92.9	92.2	< 0.01	50.8
